According to patent US8946266B2, “Substituted triazole and imidazole derivatives as gamma secretase modulators” (Janssen Pharmaceuticals, Inc., priority 2009, dated 2015):

Key:
Aβtotal [1] = assay: γ-secretase-modulating activity, Method 2: Aβtotal Alphalisa in supernatant of SKNBE2 cells carrying APP 695-wild type (Table 3b); type: cell-based; details: overnight, read-out: IC50 Aβtot
How it was run: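 Secreted Aβtotal was quantified by AlphaLISA pairing an N-terminal antibody (JRF/AβN/25) with biotinylated mid-region 4G8. Wild-type APP 695 SKNBE2 cells received serially varied compound overnight at 37 °C; IC50 came from a 4-parameter nonlinear regression of percent of control against log dose.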

Aβ42 [2] = assay: In vivo efficacy, Method 2: brain soluble Aβ42 lowering 4 h after a single oral dose, ELISA (Table 4b); set-up: species or system mouse; details: dose 30 mg/kg oral dosing
Text: (§1) To determine whether acute administration of an Aβ42 lowering agent would reduce Aβ42 levels in vivo, non-transgenic rodents, e.g. mice or rats were used. Animals treated with the Aβ42 lowering agent were examined and compared to those untreated or treated with vehicle and brain levels of soluble Aβ42 and total Aβ were quantitated by standard techniques, for example, using ELISA. Treatment periods varied from hours (h) to days and were adjusted based on the results of the Aβ42 lowering once a time course of onset of effect could be established.
(§2) A typical protocol for measuring Aβ42 lowering in vivo is shown but it is only one of many variations that could be used to optimize the levels of detectable Aβ. For example, Aβ42 lowering compounds were formulated in 20% of Captisol® (a sulfobutyl ether of β-cyclodextrin) in water or 20% hydroxypropyl β cyclodextrin. The Aβ42 lowering agents were administered as a single oral dose or by any acceptable route of administration to overnight fasted animals. After 4 h, the animals were sacrificed and Aβ42 levels were analysed.
(§3) Blood was collected by decapitation and exsanguinations in EDTA-treated collection tubes. Blood was centrifuged at 1900 g for 10 minutes (min) at 4° C. and the plasma recovered and flash frozen for later analysis. The brain was removed from the cranium and hindbrain. The cerebellum was removed and the left and right hemisphere were separated. The left hemisphere was stored at −18° C. for quantitative analysis of test compound levels. The right hemisphere was rinsed with phosphate-buffered saline (PBS) buffer and immediately frozen on dry ice and stored at −80° C. until homogenization for biochemical assays.
(§4) Mouse brains from non-transgenic animals were resuspended in 8 volumes of 0.4% DEA (diethylamine)/50 mM NaCl containing protease inhibitors (Roche-11873580001 or 04693159001) per gram of tissue, e.g. for 0.158 g brain, add 1.264 ml of 0.4% DEA. All samples were homogenized in the FastPrep-24 system (MP Biomedicals) using lysing matrix D (MPBio #6913-100) at 6 m/s for 20 seconds. Homogenates were centrifuged at 221.300×g for 50 min. The resulting high speed supernatants were then transferred to fresh eppendorf tubes. Nine parts of supernatant were neutralized with 1 part 0.5 M Tris-HCl pH 6.8 and used to quantify Aβtotal and Aβ42.
(§5) To quantify the amount of Aβtotal and Aβ42 in the soluble fraction of the brain homogenates, Enzyme-Linked-Immunosorbent-Assays were used. Briefly, the standards (a dilution of synthetic Aβ1-40 and Aβ1-42, Bachem) were prepared in 1.5 ml Eppendorf tube in Ultraculture, with final concentrations ranging from 10000 to 0.3 pg/ml. The samples and standards were co-incubated with HRPO-labelled N-terminal antibody for Aβ42 detection and with the biotinylated mid-domain antibody 4G8 for Aβtotal detection. 50 μl of conjugate/sample or conjugate/standards mixtures were then added to the antibody-coated plate (the capture antibodies selectively recognize the C-terminal end of Aβ42, antibody JRF/cAβ42/26, for Aβ42 detection and the N-terminus of Aβ, antibody JRF/rAβ/2, for Aβtotal detection). The plate was allowed to incubate overnight at 4° C. in order to allow formation of the antibody-amyloid complex. Following this incubation and subsequent wash steps the ELISA for Aβ42 quantification was finished by addition of Quanta Blu fluorogenic peroxidase substrate according to the manufacturer's instructions (Pierce Corp., Rockford, Ill.). A reading was performed after 10 to 15 min (excitation 320/emission 420).
In this model at least 20% Aβ42 lowering compared to untreated animals would be advantageous.
(§6) The results are shown in Table 4b (dose 30 mg/kg oral dosing): […]

Aβtotal [3] = assay: In vivo efficacy, Method 2: brain soluble Aβtotal lowering 4 h after a single oral dose, ELISA (Table 4b); set-up: species or system mouse; details: dose 30 mg/kg oral dosing
Text: as §1, §2, §3, §4, §5
For Aβtotal detection, a Streptavidine-Peroxidase-Conjugate was added, followed 60 min later by an additional wash step and addition of Quanta Blu fluorogenic peroxidase substrate according to the manufacturer's instructions (Pierce Corp., Rockford, Ill.). A reading was performed after 10 to 15 min (excitation 320 nm/emission 420 nm).
as §6

Aβ42 [4] = assay: γ-secretase-modulating activity, Method 2: Aβ42 Alphalisa in supernatant of SKNBE2 cells carrying APP 695-wild type (Table 3b); type: cell-based; details: overnight
How it was run: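 Aβ42 in the supernatant was quantified by AlphaLISA sandwich (JRF/cAβ42/26 with JRF/AβN/25). Cells were wild-type APP695 SKNBE2, exposed to compound overnight at 37° C., 5% CO2. Data were normalised to untreated maximum and fitted with a four-parameter curve to give IC50.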

| SMILES | IC50 (Aβtotal [1]) [nM] | IC50 (Aβ42 [4]) [nM] | Aβ42 (% Ctrl) _Mean (Aβ42 [2]) [% Ctrl] | Aβtotal (% Ctrl) _Mean (Aβtotal [3]) [% Ctrl] | Aβ42 (% Ctrl) _Mean (Aβ42 [2]; 30 mg/kg) [% Ctrl] | Aβtotal (% Ctrl) _Mean (Aβtotal [3]; 30 mg/kg) [% Ctrl] |
| --- | --- | --- | --- | --- | --- | --- |
| COc1cc(-c2nc(Nc3ccccc3OC(F)(F)F)n(C)n2)ccc1-n1cnc(C)c1.Cl.Cl [Compound 182] | 8510 | 35 | 55 | 14 |  |  |
| COc1nc(-c2nc(Nc3cc(OC(F)(F)F)ccc3F)n(C)n2)ccc1-n1cnc(C)c1 [Compound 184] | > 15000 | 13 | 69 | 15 |  |  |
| COc1cc(Nc2nc(-c3ccc(-n4cnc(C)c4)c(OC)c3)nn2C)cc(C(F)(F)F)c1 [Compound 213] | 8910 | 5 | 9 | 7 |  |  |
| COc1cc(-c2nc(Nc3cc(C(C)(C)C)nn3C)n(C)n2)ccc1-n1cnc(C)c1 [Compound 244] | > 10000 | 83 | 7 | 5 |  |  |
| COc1cc(-c2nc3n(n2)CCC[C@H]3c2ccccc2Cl)ccc1-n1cnc(C)c1 [Compound 255] | 9330 | 32 | 21 | 11 |  |  |
| COc1cc(-c2nc3n(n2)CCC[C@@H]3c2ccccc2C(F)(F)F)ccc1-n1cnc(C)c1 [Compound 260] | > 15000 | 457 | −1 | −9 |  |  |
| COc1cc(-c2nc3n(n2)CCC[C@H]3c2ccccc2C(F)(F)F)ccc1-n1cnc(C)c1 [Compound 261] | > 15000 | 24 | 46 | 6 |  |  |
| COc1nc(-c2nc3n(n2)CCC[C@H]3c2ccccc2C(F)(F)F)ccc1-n1cnc(C)c1 [Compound 263] | > 10000 | 29 | 62 | 12 |  |  |
| COc1cc(-c2nc3n(n2)CCCC3c2cc(C(F)(F)F)ccc2C)ccc1-n1cnc(C)c1 (stereo not drawn) [Compound 264] | > 10000 | 15 | 49 | 8 |  |  |
| COc1cc(-c2nc3n(n2)CCCC3c2cc(OC(F)(F)F)ccc2F)ccc1-n1cnc(C)c1 (stereo not drawn) [Compound 265] | > 10000 | 19 | 55 | 22 |  |  |
| COc1nc(-c2nc(Nc3cccc(F)c3Cl)n(C)n2)ccc1-n1cnc(C)c1 [Compound 302] | > 10000 | 71 | 31 | −3 |  |  |
| COc1cc(-c2nc3n(n2)CCOC3c2ccccc2C(F)(F)F)ccc1-n1cnc(C)c1 (stereo not drawn) [Compound 306] | > 10000 | 71 |  |  | 22 | −2 |
| COc1cc(-c2nc3n(n2)CCC[C@H]3c2ccc(F)cc2C)ccc1-n1cnc(C)c1.Cl [Compound 315] | > 10000 | 29 | 49 | 10 |  |  |
| COc1c(-n2cnc(C)c2)ccc(-c2nc(Nc3cc(C(F)(F)F)ccc3F)n(C)n2)c1F [Compound 320] | > 10000 | 45 | 23 | 8 |  |  |
| Cc1cn(-c2ccc(-c3nc(Nc4cc(C(F)(F)F)ccc4F)n(C)n3)cc2C#N)cn1 [Compound 322] | > 15000 | 36 | −5 | −4 |  |  |
| COc1nc(-c2nc(N(C)c3cc(C(F)(F)F)ccc3F)n(C)n2)ccc1-n1cnc(C)c1 [Compound 337] | > 10000 | 263 | 30 | 3 |  |  |
| COc1nc(-c2nc3n(n2)CCCC3c2cc(C(F)(F)F)ccc2C)ccc1-n1cnc(C)c1 (stereo not drawn) [Compound 343] | > 10000 | 15 | 64 | 18 |  |  |

More lines, main results first:

| IC50 (Aβtotal [1]) [nM] | IC50 (Aβ42 [4]) [nM] | SMILES | Aβ42 (% Ctrl) _Mean (Aβ42 [2]) [% Ctrl] | Aβtotal (% Ctrl) _Mean (Aβtotal [3]) [% Ctrl] | Aβ42 (% Ctrl) _Mean (Aβ42 [2]; 30 mg/kg) [% Ctrl] | Aβtotal (% Ctrl) _Mean (Aβtotal [3]; 30 mg/kg) [% Ctrl] |
| --- | --- | --- | --- | --- | --- | --- |
| 5750 | 25 | COc1cc(-c2nc(Nc3cccc(OC(F)(F)F)c3)n(C)n2)ccc1-n1cnc(C)c1 [Compound 181] | 28 | 9 |  |  |
| > 10000 | 17 | COc1cc(-c2nc(Nc3cc(OC(F)(F)F)ccc3F)n(C)n2)ccc1-n1cnc(C)c1 [Compound 185] | 40 | 9 |  |  |
| > 10000 | 13 | COc1cc(-c2nc(Nc3cc(C)ccc3C)n(C)n2)ccc1-n1cnc(C)c1 [Compound 198] | 55 | 6 |  |  |
| > 10000 | 16 | COc1ccc(C)c(Nc2nc(-c3ccc(-n4cnc(C)c4)c(OC)c3)nn2C)c1 [Compound 199] | 39 | 5 |  |  |
| > 10000 | 10 | COc1cc(-c2nc(Nc3cc(C(F)(F)F)cc(OC)c3F)n(C)n2)ccc1-n1cnc(C)c1 [Compound 203] | 54 | 6 |  |  |
| > 10000 | 110 | COCc1ccccc1Nc1nc(-c2ccc(-n3cnc(C)c3)c(OC)c2)nn1C.Cl [Compound 204] | 41 | 2 |  |  |
| > 10000 | 25 | COc1cc(-c2nc(Nc3c(F)ccc(C(F)(F)F)c3F)n(C)n2)ccc1-n1cnc(C)c1 [Compound 211] | 32 | −1 |  |  |
| > 10000 | 170 | COc1cc(-c2nc(Nc3c(F)cccc3OC)n(C)n2)ccc1-n1cnc(C)c1 [Compound 214] | −15 | 0 |  |  |
| 6460 | 26 | COc1ccc(C(F)(F)F)cc1Nc1nc(-c2ccc(-n3cnc(C)c3)c(OC)c2)nn1C [Compound 217] | 35 | −4 |  |  |
| > 10000 | 40 | COc1cc(-c2nc(Nc3cc(Br)ccc3F)n(C)n2)ccc1-n1cnc(C)c1 [Compound 303] | 33 | 23 |  |  |
| > 10000 | 42 | COc1cc(-c2nc(Nc3cccc(F)c3C)n(C)n2)ccc1-n1cnc(C)c1 [Compound 304] | 48 | 11 |  |  |
| > 10000 | 8 | COc1cc(-c2nc(Nc3cc(OC(C)C)ccc3F)n(C)n2)ccc1-n1cnc(C)c1 [Compound 307] | 19 | −2 |  |  |
| > 10000 | 44 | COc1cc(-c2nc(Nc3ccccc3OC(F)F)n(C)n2)ccc1-n1cnc(C)c1 [Compound 310] | 45 | 20 |  |  |
